A short description of data set [1]: Cytoprotective activity in Sprague-Dawley rat primary astrocytes assessed as inhibition of H2O2-induced cell death by LDH release assay. It counts as functional, cell-based. Conditions: Astrocyte.
Data set [2] relates to Astrocyte. Nature of the data set: Inhibition of H2O2-induced mitochondrial metabolic dysfunction in Sprague-Dawley rat primary astrocytes by resazurin-dye based presto blue assay. It counts as functional, cell-based. (Resazurin is reduced to fluorescent resorufin, in cell work by metabolically active cells.)
Data set [3] relates to Astrocyte. Put plainly: Cytoprotective activity in Sprague-Dawley rat primary astrocytes assessed as inhibition of H2O2-induced mitochondrial membrane depolarization at 1 uM measured every 5 mins for 2 hrs by TMRM dye based fluorescence assay. The class given is functional, cell-based.
A short description of data set [4]: Cytoprotective activity in Sprague-Dawley rat primary astrocytes assessed as inhibition of H2O2-induced cell death at 0.001 to 10 uM by LDH release assay relative to control. It counts as functional, Astrocyte. A general note: LDH leaks from cells whose membrane has failed.
Data set [5] relates to Astrocyte. Nature of the data set: Inhibition of H2O2-induced mitochondrial metabolic dysfunction in Sprague-Dawley rat primary astrocytes at 0.001 to 10 uM by resazurin-dye based presto blue assay relative to control. The class given is functional.
Data set [6] is described as follows: Effect on basal extracellular acidification rate in Sprague-Dawley rat primary astrocytes at 1 uM. Conditions: astrocyte. It counts as ADME, cell-based.
A short description of data set [7]: Effect on ATP turn over-linked oxygen consumption rate in Sprague-Dawley rat primary astrocytes at 1 uM. The conditions noted are these: astrocyte. The class given is ADME, cell-based.
Data set [8] can be described thus: Induction of mitochondrial membrane depolarization in Sprague-Dawley rat primary astrocytes at 1 uM measured every 5 mins for 2 hrs by TMRM dye based fluorescence assay. Conditions: astrocyte. The class given is cell-based.
For data set [9], the system named is Astrocyte. Put plainly: Inhibition of H2O2-induced mitochondrial metabolic dysfunction in Sprague-Dawley rat primary astrocytes assessed as stimulation of extracellular acidification rate at 1 uM. The class given is functional, cell-based.
For a further data set, the species on record is Rattus norvegicus. Nature of the data set: Cytotoxicity against Sprague-Dawley rat primary astrocytes assessed as cell death up to 10 uM by LDH release assay. The class given is toxicity. The conditions noted are these: astrocyte.
Data set [10] deals with Astrocyte. Nature of the data set: Inhibition of H2O2-induced mitochondrial metabolic dysfunction in Sprague-Dawley rat primary astrocytes assessed as stimulation of glycolytic metabolism at 1 uM. The class given is functional, cell-based.
Data set [11] has as its system Astrocyte. Nature of the data set: Cytoprotective activity in Sprague-Dawley rat primary astrocytes assessed as inhibition of H2O2-induced decrease in oxygen consumption rate at 1 uM. It counts as functional, cell-based.
The nature of data set [12]: Effect on basal oxygen consumption rate in Sprague-Dawley rat primary astrocytes at 1 uM. It counts as ADME, cell-based. Conditions: astrocyte.

The results in this text go back to ChEMBL document CHEMBL3877311, “Discovery of a novel series of N-hydroxypyridone derivatives protecting astrocytes against hydrogen peroxide-induced toxicity via improved mitochondrial functionality” (Bioorg Med Chem, 2017).

Molecules are shown by their SMILES. Calls of active or inactive are those of the source. No cut-off for these calls is given here.

As for `Cc1cc(C2CCCCC2)n(O)c(=O)c1` [CICLOPIROX], the figures for the IC50 (in [1]; in the data set with Astrocyte [2]) were 250 nM and 330 nM, respectively. The inhibition entry in the data set with Astrocyte [3] is “Active”. Besides, the figures for the Imax (in [4]; in the data set with Astrocyte [5]) were 50.3% and 43.72%, respectively.

`Cc1cc(-c2cccc(F)c2)n(O)c(=O)c1` showed an Imax in the data set with Astrocyte [5] of 0.75%.

For `COc1ccccc1-c1ccc(-c2cc(C)cc(=O)n2O)cc1`, the figures for the IC50 (in data set [1]; in the data set on Astrocyte [2]) were 156 nM and 340 nM, respectively. Besides, the Activity entry (in data set [6]; in [7]; in [8]; in the data set filed under Rattus norvegicus; in data set [12]) was “Non-Toxic” each time. Further, the inhibition entry with Astrocyte [9], in the data set with Astrocyte [3], in the data set on Astrocyte [10] and in the data set on Astrocyte [11] was “Active” throughout. Also, the Imax in data set [4] is 58.8%; in the data set with Astrocyte [5] it was 58.6%.

As a reminder, the IC50 is the concentration at which inhibition is half-maximal.
